Measurements reported in ChEMBL document CHEMBL1125900, “Biologically active taxol analogues with deleted A-ring side chain substituents and variable C-2' configurations” (J Med Chem, 1991).
In brackets after ≈: the same amount, converted by molar mass.

Key:
J774.2 = experiment: Concentration that inhibits cell division by 50% after 72 hr for J774.2 cells was determined; assay type: functional; conditions: Mus musculus, J774.2, 72 h; read-out: ED50 (the source's name)
Homo sapiens = organism: Homo sapiens; experiment: Effect on microtubule protein assembly was determined in vitro; assay type: functional
[1] = Solubility in H2O was measured; assay type: physicochemical; conditions: water
CHO = experiment: Concentration that inhibits cell division by 50% after 72 hr for CHO cells was determined; assay type: functional; conditions: Cricetulus griseus, read-out: ED50 (the source's name)

| SMILES | EC50 (J774.2) [µM] | Assembly (Homo sapiens) [%] | solubility [1] [µM] | EC50 (CHO) [µM] |
| --- | --- | --- | --- | --- |
| CC(=O)O[C@H]1C(=O)[C@@]2(C)[C@H]([C@H](OC(=O)c3ccccc3)[C@]3(O)C[C@H](OC(=O)[C@@H](C)O)C(C)=C1C3(C)C)[C@]1(OC(C)=O)CO[C@@H]1C[C@@H]2O | 27 | 31 | 820 (≈ 540 µg/mL) | > 45 |
| CC(=O)O[C@H]1C(=O)[C@@]2(C)[C@H]([C@H](OC(=O)c3ccccc3)[C@]3(O)C[C@H](OC(=O)[C@@H](O)Cc4ccccc4)C(C)=C1C3(C)C)[C@]1(OC(C)=O)CO[C@@H]1C[C@@H]2O | 3.4 | 69 | 160 (≈ 118 µg/mL) | 5.3 |
| CC(=O)O[C@H]1C(=O)[C@@]2(C)[C@H]([C@H](OC(=O)c3ccccc3)[C@]3(O)C[C@H](OC(=O)[C@H](O)Cc4ccccc4)C(C)=C1C3(C)C)[C@]1(OC(C)=O)CO[C@@H]1C[C@@H]2O | 3.5 | 68 | 175 (≈ 129 µg/mL) | 5.5 |
| CC(=O)O[C@H]1C(=O)[C@@]2(C)[C@H]([C@H](OC(=O)c3ccccc3)[C@]3(O)C[C@H](OC(=O)[C@H](C)O)C(C)=C1C3(C)C)[C@]1(OC(C)=O)CO[C@@H]1C[C@@H]2O | 29 | 38 | 1000 (≈ 659 µg/mL) | > 45 |
| CC(=O)O[C@H]1C(=O)[C@@]2(C)[C@H]([C@H](OC(=O)c3ccccc3)[C@]3(O)C[C@H](OC(=O)[C@@H](O)CNC(=O)c4ccccc4)C(C)=C1C3(C)C)[C@]1(OC(C)=O)CO[C@@H]1C[C@@H]2O | – | – | 565 (≈ 439 µg/mL) | – |
| CC(=O)O[C@H]1C(=O)[C@@]2(C)[C@H]([C@H](OC(=O)c3ccccc3)[C@]3(O)C[C@H](OC(=O)[C@H](O)CNC(=O)c4ccccc4)C(C)=C1C3(C)C)[C@]1(OC(C)=O)CO[C@@H]1C[C@@H]2O | 20 | 60 | 615 (≈ 478 µg/mL) | 32 |
| Nc1nc2c(ncn2[C@@H]2O[C@H](COP(=O)(O)OP(=O)(O)OP(=O)(O)O)[C@@H](O)[C@H]2O)c(=O)[nH]1 [GUANOSINE TRIPHOSPHATE] | – | 70 | – | – |
| CC(=O)O[C@H]1C(=O)[C@@]2(C)[C@H]([C@H](OC(=O)c3ccccc3)[C@]3(O)C[C@H](OC(=O)[C@H](O)[C@@H](NC(=O)c4ccccc4)c4ccccc4)C(C)=C1C3(C)C)[C@]1(OC(C)=O)CO[C@@H]1C[C@@H]2O [PACLITAXEL] | 0.09 | 100 | – | 0.35 |
